{"source": "patent US5369111A", "about": "“Modulator agent and use thereof” (University of Vermont, priority 1992, dated 1994)", "key": {"[1]": {"tested_on": "P388 R cells", "assay": "Sensitization of P388 R cells to antitumorous agents", "type": "cell-based, mouse", "method": "(§1) The sensitization of C-20'-deoxy C-20'-deethyl vincovaline (D-DEV) has been tested on sensitive and resistants P388 cell lines originating from mouse lympnoma.\n(§2) The resistance to anticancerous drug has been induced on DBA2 mouses bearing P388 cells ascites and maintained by treatment with adryamycin.\nThe P388 R cells are incubated at 37° C. during 24 hours with constant subtoxic concentrations of antitumoral drugs and increasing concentrations of modulators from 1 to 100 μM."}, "[2]": {"tested_on": "S180 cells, parental", "assay": "Modulation of intrinsic drug resistance, parental S180", "type": "cell-based, murine", "settings": "S180 parental", "outline": "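Parental S180 cells at 1×10^5 cells/ml treated with modulator (10^-6 M up to non-toxic IC10-20 or solubility limit) added minutes before VBL, VCR or ADM; growth counted electronically after 72 h. Sensitivity index = drug IC50 alone / drug IC50 with modulator; duplicates from two experiments.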"}, "[3]": {"tested_on": "S180/A10 cells", "assay": "Modulator potency in MDR cells: reversal of acquired resistance, S180/A10", "type": "cell-based, murine", "outline": "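S180/A3 and S180/A10 MDR cells at 1×10^5 cells/ml exposed to a modulator concentration range, added minutes before VBL, VCR or ADM at parental-cell IC70s. Growth counted by electronic particle counter after 72 h. Value is the minimal modulator concentration restoring 70% growth inhibition; mean of 2-3 experiments.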"}, "[4]": {"assay": "Viability (MTT test) of P388 R cells", "type": "cell-based, mouse", "settings": "mouse; resistant cells P388 R, 24 h and 48 h; read-out: concentrations up to which no cytotoxicity is seen", "description": "as §1, §2\n(§3) This study has been carried out at least in triplicate."}, "[5]": {"tested_on": "KB-V1 cells", "assay": "Modulation of acquired resistance, KB-V1", "type": "cell-based, human", "settings": "at the non-toxic concentration limit of 20 μM", "method": "(§4) Mid-exponential cultures were used for all assays. The RCC-2 and RCC-5 cell lines were seeded into 24-well plates at 2×10^4 cells/well and allowed to attach to the substratum for 16-18 h prior to treatment. The S180 cell lines were seeded into culture tubes at 1×10^5 cells/ml and treated immediately. Cytotoxicity was determined by quantitation of population growth after 72 h incubation by electronic particle counter (Coulter Electronics, Hialeah, Fla.). The human tumor cell lines were used in a clonogenic assay for cytotoxicity. Cells were seeded at 300 cells/dish, incubated overnight and then treated. Colonies were scored 7-11 days later. In all assays of analog modulation of drug sensitivity, the analog was added minutes prior to the addition of cytotoxic drug.\n(§5) FIG. 10 represents the potency of the analog C-20'-deoxy deethyl vincovaline as a modulator of the drug sensitivity of various cell lines: the parental S180 cell line: the two rat colon cancer cell lines, RCC-2 and RCC-5; and the human epidermoid carcinoma cell line KB-3-1 and its MDR cell strain KB-V1, which expresses very high levels of drug resistance (200-500 fold). The enhancement of sensitivity was calculated as the sensitivity index =IC50 of the drug alone divided by the IC50 of the drug+analog. […] The cytotoxicity of drug and analog treatments in the KB cell lines were measured by cloning efficiencies. […]"}, "[6]": {"assay": "Viability (MTT test) of P388 S cells", "type": "cell-based", "settings": "mouse; sensitive cells P388 S, 24 h and 48 h; read-out: concentrations up to which no cytotoxicity is seen", "description": "as §1, §2, §3"}, "[7]": {"tested_on": "RCC-2 and RCC-5 cells", "assay": "Inhibition of population growth of rat colon cancer cell lines RCC-2 and RCC-5", "type": "cell-based", "settings": "RCC-2 and RCC-5", "description": "The analogs were examined in a panel of tumor cell lines of both intrinsic and acquired drug resistance, as described in Table 1. The rat colon adenocarcinoma cell lines RCC-2 and RCC-5 (ref. 13) were maintained in Ham's F12 medium supplemented with 5% heat-inactivated, fetal bovine serum (Sterile Systems. Hyclone, Logan, Utah). The two rat colon cancer cell lines differ in their degree of cellular differentiation; whereas the RCC-2 cell line is undifferentiated, the RCC-5 cell line is highly mucinous. The human epidermoid carcinoma cell line KB-3-1 and its MDR variant KB-Vl, selected by VBL treatment (ref. 14; courtesy of M. Gottesman. National Cancer Institute), was maintained in DMEM medium supplemented with 10%, heat-inactivated, fetal bovine serum. […]\nMid-exponential cultures were used for all assays. […] Cytotoxicity was determined by quantitation of population growth after 72 h incubation by electronic particle counter (Coulter Electronics, Hialeah, Fla.). […] Colonies were scored 7-11 days later. […]\nFIG. 7 represents the toxicity of analog C-20'-deoxy vincovaline (A) and C-20'-deoxy deethyl vincovaline (B) to population growth of the rat colon adenocarcinoma cell lines. The congener was added at various concentrations to RCC-2 (.cndot.) and RCC-5 (Δ) cell cultures and the population cell number was determined 72 hours later. […]"}, "[8]": {"tested_on": "KB-3-1 cells", "assay": "Modulation of drug sensitivity, KB-3-1", "type": "cell-based, human", "settings": "ADM, VBL, VCR", "method": "as §4, §5"}, "[9]": {"assay": "Clonogenic assay for cytotoxicity, MDR variant KB-V1", "type": "cell-based, human", "settings": "human, kb-v1 cells; read-out: non-toxic concentration limit", "description": "The analogs were examined in a panel of tumor cell lines of both intrinsic and acquired drug resistance, as described in Table 1. The rat colon adenocarcinoma cell lines RCC-2 and RCC-5 (ref. 13) were maintained in Ham's F12 medium supplemented with 5% heat-inactivated, fetal bovine serum (Sterile Systems. Hyclone, Logan, Utah). The two rat colon cancer cell lines differ in their degree of cellular differentiation; whereas the RCC-2 cell line is undifferentiated, the RCC-5 cell line is highly mucinous. The human epidermoid carcinoma cell line KB-3-1 and its MDR variant KB-Vl, selected by VBL treatment (ref. 14; courtesy of M. Gottesman. National Cancer Institute), was maintained in DMEM medium supplemented with 10%, heat-inactivated, fetal bovine serum. The murine sarcoma cell line […] and its MDR strains A3 and A10 selected by ADM treatment (ref. 15; courtesy of T. Tritton, Dept. Pharmacology, Univ. Vermont). were maintained in DMEM medium supplemented with 10% heat-inactivated, horse serum (Hazelton Biolog. Lenexa, Kans.). Stock cultures were subcultured twice weekly upon reaching the late exponential phase of population growth: population doubling times were 18-24 h. Antibiotics were not used in stock or experimental cultures. The MDR cell strains were grown in drug-free media for 48 h prior to experimental use.\nas §4\nFIG. 10 represents the potency of the analog C-20'-deoxy deethyl vincovaline as a modulator of the drug sensitivity of various cell lines: the parental S180 cell line: the two rat colon cancer cell lines, RCC-2 and RCC-5; and the human epidermoid carcinoma cell line KB-3-1 and its MDR cell strain KB-V1, which expresses very high levels of drug resistance (200-500 fold). The enhancement of sensitivity was calculated as the sensitivity index =IC50 of the drug alone divided by the IC50 of the drug+analog. The drugs examined were ADM (o), VBL (Δ), and VCR (.quadrature.). The cytotoxicity of drug and analog treatments in the KB cell lines were measured by cloning efficiencies. The arrows denote the non-toxic concentration limit of the analog in each cell line."}}}
{"smiles": "CC[C@]12C=CCN3CC[C@@]4(c5cc([C@]6(C(=O)OC)C[C@H]7CCCN(CCc8c6[nH]c6ccccc86)C7)c(OC)cc5N(C)[C@H]4[C@@](O)(C(=O)OC)[C@@H]1OC(C)=O)[C@@H]32", "note": "[analog n° 352, C-20'-deoxy-20'-deethyl-C-14', 16'-epi-VBL]", "values": [{"measurement": "percentage of cellular survival", "setting": "[1]; modulator 30 μM, ADM 1.72 μM, 1440 min", "result": 50, "unit": "%"}, {"measurement": "modulator effect on P388 R cells with ADM (in words)", "setting": "[1]; modulator 100 μM, ADM 0.17 μM", "result": "no effect"}, {"measurement": "maximum degree of sensitization to ADM", "setting": "[2]; ADM", "result": 5.5, "unit": "fold"}, {"measurement": "maximum degree of sensitization to VBL and VCR", "setting": "[2]; VBL and VCR", "result": "2.3-2.7 fold"}, {"measurement": "reversal of high level ADM resistance (in words)", "setting": "[3]; A10 cells, 90 fold ADM resistance", "result": "can reverse high level (90-fold) ADM resistance in MDR cells"}, {"measurement": "reversal of high level ADM resistance", "setting": "[3]; ADM, 90-fold resistance, A10", "result": 80, "unit": "%"}, {"measurement": "MNTC", "setting": "[4]", "result": "≥ 100", "unit": "µM"}, {"measurement": "sensitization to VCR only", "setting": "[5]", "result": 6, "unit": "fold"}, {"measurement": "MNTC", "setting": "[6]", "result": "≥ 25", "unit": "µM"}, {"measurement": "reduction in cytotoxicity to the colon cancer cell lines compared to C-20'-deoxy vincovaline", "setting": "[7]", "result": 10, "unit": "fold"}, {"measurement": "sensitization to all three drugs", "setting": "[8]", "result": "3-5 fold"}, {"measurement": "MNTC", "setting": "[9]", "result": 20, "unit": "µM"}]}
